Test results: patent US7846966B2, “Chroman derivatives as estrogenic compounds” (N.V. Organon, priority 2000, dated 2010)

Test system: human estrogen receptor α (hERα) or β receptor (hERβ)
Experiment: in vitro transactivation bioassay (estrogenic activity) in recombinant CHO cells co-transfected with hER, rat oxytocin promoter and luciferase reporter
Format: cell-based
Details: for Potency Transactivation (% relative to 17β-estradiol): agonist potency ratio vs estradiol, CHO cells, luciferase reporter, receptor subtype not given; for β/α ratio: ratio of hERβ to hERα
Description: The estrogenic and antiestrogenic activity of compounds is determined in an in vitro bioassay with recombinant Chinese hamster ovary (CHO) cells stably co-transfected with the human estrogen receptor α (hERα) or β receptor (hERβ), the rat oxytocin promoter (RO) and the luciferase reporter gene (LUC). The estrogenic activity (potency ratio) of a test compound to stimulate the transactivation of the enzyme luciferase mediated via the estrogen receptors hERα or hERβ is compared with the standard estrogen estradiol. The antiestrogenic activity (potency ratio) of a test compound to inhibit the transactivation of the enzyme luciferase mediated via the estrogen receptors hERα or hERβ by the estrogen estradiol is compared with the standard ICI 164.384 (=(7α, 17β)-N-butyl-3,17-dihydroxy-N-methylestra-1,3,5(10)-triene-7-undecanamide).

SMILES | Potency Transactivation (% relative to 17β-estradiol) | β/α ratio
CCCC(=O)Oc1ccc(C2Oc3ccc(OC(=O)CCC)cc3C(Cc3ccccc3)C2CC)cc1 (racemic) [Compound 6a] | +++ (+++ >10%) | +++ (+++ >30)
CCC1C(Cc2ccccc2)c2cc(O)ccc2OC1c1ccc(O)cc1 (stereo not drawn) [Compound 5b] | +++ (+++ >10%) | +++ (+++ >30)
CCC1C(Cc2ccccc2)c2cc(OC(=O)C(C)(C)C)ccc2OC1c1ccc(OC(=O)C(C)(C)C)cc1 (racemic) [Compound 6b] | + (+ between 0.1-4%) | + (+ between 3.5-10)
